Structures can show the parent of a compound that is named as a salt. Where two headings read alike, the source gives them in different places.
How the values were obtained:
[1] = tested on: NRC-03-nhCoV; experiment: microbe, parasite or virus in culture; format: cell-based, SARS-CoV-2
[2] = in vitro; settings: African green monkey, CC50 (Vero-E6)
[3] = tested on: Vero-E6 cells
[4] = Severe acute respiratory syndrome coronavirus 2, Vero C1008, 72 h, Vero-E6 cells, 72 h, crystal violet, reduction of virus-induced CPE by 50%, read-out: IC50 (NRC-03-nhCoV)
[5] = half maximal cytotoxic concentration, MTT assay, Vero-E6 cells
[6] = Severe acute respiratory syndrome coronavirus 2, Vero C1008, negative log of the IC50 value against SARS-CoV-2, read-out: pIC50 (converted)
[7] = Vero-E6 cells, 72 h, crystal violet, reduction of virus-induced CPE by 50%, read-out: IC50 (NRC-03-nhCoV)
[8] = read-out: CC50 (Vero-E6), half maximal cytotoxic concentration, MTT assay, Vero-E6 cells
[9] = Severe acute respiratory syndrome coronavirus 2, Vero C1008, Vero-E6 cells, 72 h, crystal violet, reduction of virus-induced CPE by 50%, read-out: IC50 (NRC-03-nhCoV)

Molecule	IC50 [1, 4] [µM]	CC50 [2, 5] [µM]	also measured
C[C@H]1C[C@@H]2[C@H]([C@@H](O)C[C@@]3(C)[C@H]2CC[C@]3(O)C(=O)CO)[C@@]2(C)C=CC(=O)C=C12 [Methylprednisolone]	90.4	3340	–
CC1=C(C(=O)O)N2C(=O)[C@@H](NC(=O)[C@H](N)c3ccccc3)[C@H]2SC1 [Cephalexin]	13.2	–	–
CC(=O)Nc1ccc(O)cc1 [Paracetamol]	–	4980	–
Cc1ccc(-c2cc(C(F)(F)F)nn2-c2ccc(S(N)(=O)=O)cc2)cc1 [Celecoxib]	13	140	IC50 [1, 6]: 12.9 µM
CN1C(C(=O)Nc2ccccn2)=C(O)c2ccccc2S1(=O)=O [Piroxicam]	8.21	1800	IC50 [1, 6]: 8.13 µM
CC1(C)S[C@@H]2[C@H](NC(=O)Cc3ccccc3)C(=O)N2[C@H]1C(=O)O [Benzathine penicillin]	–	–	IC50 [1, 7]: 15.8 µM; CC50 [3, 8]: 728 µM
OCc1cc(C(O)CNCCCCCCOCCCCc2ccccc2)ccc1O (stereo not drawn) [Salmeterol]	–	4.1	IC50 [1, 9]: 1.5 µM
CC(=O)Oc1ccccc1C(=O)O [Acetyl Salicylic acid “Aspirin”, Acetyl Salicylic acid]	12.2	1260	–
Cc1c(N(C)CS(=O)(=O)O)c(=O)n(-c2ccccc2)n1C [Metamizole sodium]	–	–	IC50 [1, 7]: 15 µM; CC50 [3, 8]: 948 µM
O=C(O)Cc1ccccc1Nc1c(Cl)cccc1Cl [Diclofenac sodium]	96.2	138	–
O=C1CN(/N=C/c2ccc([N+](=O)[O-])o2)C(=O)N1 [Nitrofurantoin]	–	–	IC50 ([1]; Severe acute respiratory syndrome coronavirus 2, Vero C1008, 72 h, read-out: IC50 (NRC-03-nhCoV)): 16.2 µM; CC50 [2]: 599 µM
C[C@]12CCC(=O)C=C1CC[C@@H]1[C@@H]2[C@@H](O)C[C@@]2(C)[C@H]1CC[C@]2(O)C(=O)CO [Hydrocortisone]	7.1	614	–
CO/N=C(\C(=O)N[C@@H]1C(=O)N2C(C(=O)O)=C(CSc3nc(=O)c(=O)[nH]n3C)CS[C@H]12)c1csc(N)n1 [Ceftriaxone]	–	446	IC50 [1, 9]: 16.1 µM
COc1ccc2c(c1)c(CC(=O)O)c(C)n2C(=O)c1ccc(Cl)cc1 [Indomethacin]	8.51	672	–
c1ccc2c(CC3=NCCN3)cccc2c1 [Naphazoline]	9.52	636	–
CCN1CCN(C(=O)N[C@@H](C(=O)N[C@@H]2C(=O)N3C(C(=O)O)=C(CSc4nnnn4C)CS[C@H]23)c2ccc(O)cc2)C(=O)C1=O [Cefoperazone]	12.4	69	–
CC(C)(O/N=C(\C(=O)N[C@@H]1C(=O)N2C(C(=O)[O-])=C(C[n+]3ccccc3)CS[C@H]12)c1csc(N)n1)C(=O)O [Ceftazidime]	46.1	5550	–
CCC[C@@H]1C[C@@H](C(=O)N[C@@H]([C@H]2O[C@H](SC)[C@H](O)[C@@H](O)[C@H]2O)[C@H](C)Cl)N(C)C1 [Clindamycin]	15.7	–	IC50 [1, 7]: 15.7 µM
CN(C)CCC(c1ccc(Cl)cc1)c1ccccn1 (stereo not drawn) [Chlorpheniramine maleate]	3.6	466	–
CC(=O)NC[C@H]1CN(c2ccc(N3CCOCC3)c(F)c2)C(=O)O1 [Linezolid]	16.3	816	–

Molecule	IC50 [1, 4] [µM]	CC50 [2, 5] [µM]	also measured
CC1(C)S[C@@H]2[C@H](NC(=O)[C@H](N)c3ccc(O)cc3)C(=O)N2[C@H]1C(=O)O [Amoxicillin]	16.1	615	–
O=C(O)c1cn(C2CC2)c2cc(N3CCNCC3)c(F)cc2c1=O [Ciprofloxacin]	61.6	–	–
NCC[C@H](O)C(=O)N[C@@H]1C[C@H](N)[C@@H](O[C@H]2O[C@H](CN)[C@@H](O)[C@H](O)[C@H]2O)[C@H](O)[C@H]1O[C@H]1O[C@H](CO)[C@@H](O)[C@H](N)[C@H]1O [Amikacin sulphate]	–	–	IC50 [1, 7]: 16.8 µM; CC50 [3, 8]: 2460 µM
CO/N=C(\C(=O)N[C@@H]1C(=O)N2C(C(=O)O)=C(COC(C)=O)CS[C@H]12)c1csc(N)n1 [Cefotaxime]	42.7	3160	–
C[C@@H]1C[C@H]2[C@@H]3CCC4=CC(=O)C=C[C@]4(C)[C@@]3(F)[C@@H](O)C[C@]2(C)[C@@]1(O)C(=O)CO [Dexamethasone]	123	1900	–
Cc1onc(-c2c(F)cccc2Cl)c1C(=O)N[C@@H]1C(=O)N2[C@@H]1SC(C)(C)[C@@H]2C(=O)O [Flucloxacillin]	158	966	–
CC(C)(O)c1ccccc1CC[C@@H](SCC1(CC(=O)O)CC1)c1cccc(/C=C/c2ccc3ccc(Cl)cc3n2)c1 [Montelukast]	–	–	CC50 [2]: 9.86 µM
Neomycin	–	–	IC50 [1, 7]: 18.1 µM; CC50 [3, 8]: 833 µM
O=C(N[C@H](CO)[C@H](O)c1ccc([N+](=O)[O-])cc1)C(Cl)Cl [Chloramphenicol]	16.9	33.9	CC50 [3, 8]: 33.9 µM
C[C@H]1COc2c(N3CCN(C)CC3)c(F)cc3c(=O)c(C(=O)O)cn1c23 [Levofloxacin]	13.8	2160	–
C[C@H]1c2cccc(O)c2C(=O)C2=C(O)[C@]3(O)C(=O)C(C(N)=O)=C(O)[C@@H](N(C)C)[C@@H]3[C@@H](O)[C@@H]21 [Doxycycline]	5.1	636	IC50 [1, 6]: 5.13 µM
COc1ccc(C[C@@H](C)NC[C@H](O)c2ccc(O)c(NC=O)c2)cc1 [Formoterol Fumarate]	–	–	IC50 [1, 7]: 71.8 µM; CC50 [3]: 569 µM
O=C(c1ccccc1)c1ccc2n1CCC2C(=O)O (stereo not drawn) [Ketorolac Tromethamine]	153	2040	–
C[C@@H]1[C@H](O)[C@@H](C)/C=C/C=C/CC/C=C/C=C/C=C/C=C/C(O[C@H]2O[C@H](C)[C@@H](O)[C@H](N)[C@@H]2O)CC2O[C@](O)(CC(O)C(O)CCC(O)CC(O)CC(O)CC(=O)O[C@H]1C)CC(O)C2C(=O)O (stereo partly drawn) [Nystatin]	–	–	IC50 [1, 7]: 161 µM; CC50 [3, 8]: 183 µM
Cc1cnc(NC(=O)C2=C(O)c3ccccc3S(=O)(=O)N2C)s1 [Meloxicam]	12.4	262	–
COc1c(N2C[C@@H]3CCCN[C@@H]3C2)c(F)cc2c(=O)c(C(=O)O)cn(C3CC3)c12 [Moxifloxacin]	12.2	2240	–
CCC(=O)O[C@]1(C(=O)SCF)[C@H](C)C[C@H]2[C@@H]3C[C@H](F)C4=CC(=O)C=C[C@]4(C)[C@@]3(F)[C@@H](O)C[C@@]21C [Fluticasone Propionate]	1.71	32	–
CC(C)Cc1ccc(C(C)C(=O)O)cc1 (stereo not drawn) [Ibuprofen]	88.7	1170	–
CC(C)C(=O)OCC(=O)[C@@]12O[C@H](C3CCCCC3)O[C@@H]1C[C@H]1[C@@H]3CCC4=CC(=O)C=C[C@]4(C)[C@H]3[C@@H](O)C[C@@]12C [Ciclesonide]	4.2	120	–
